Here are results for 13 compounds from ChEMBL document CHEMBL4265896, “Design and synthesis of potent RSK inhibitors” (Bioorg Med Chem Lett, 2018).

One may read the IC50 as the point on the concentration scale where inhibition reaches its midpoint. By solubility is commonly meant how much of the substance goes into solution per volume. A word on the efflux ratio: it is a quotient of directional permeabilities that is used to spot active efflux.

For data set [1], the target named is T1, Ribosomal protein S6 kinase alpha-3 (Homo sapiens, UniProt P51812). As to the kind of experiment: Inhibition of RSK2 (unknown origin).
T1 sequence (P51812 whole entry): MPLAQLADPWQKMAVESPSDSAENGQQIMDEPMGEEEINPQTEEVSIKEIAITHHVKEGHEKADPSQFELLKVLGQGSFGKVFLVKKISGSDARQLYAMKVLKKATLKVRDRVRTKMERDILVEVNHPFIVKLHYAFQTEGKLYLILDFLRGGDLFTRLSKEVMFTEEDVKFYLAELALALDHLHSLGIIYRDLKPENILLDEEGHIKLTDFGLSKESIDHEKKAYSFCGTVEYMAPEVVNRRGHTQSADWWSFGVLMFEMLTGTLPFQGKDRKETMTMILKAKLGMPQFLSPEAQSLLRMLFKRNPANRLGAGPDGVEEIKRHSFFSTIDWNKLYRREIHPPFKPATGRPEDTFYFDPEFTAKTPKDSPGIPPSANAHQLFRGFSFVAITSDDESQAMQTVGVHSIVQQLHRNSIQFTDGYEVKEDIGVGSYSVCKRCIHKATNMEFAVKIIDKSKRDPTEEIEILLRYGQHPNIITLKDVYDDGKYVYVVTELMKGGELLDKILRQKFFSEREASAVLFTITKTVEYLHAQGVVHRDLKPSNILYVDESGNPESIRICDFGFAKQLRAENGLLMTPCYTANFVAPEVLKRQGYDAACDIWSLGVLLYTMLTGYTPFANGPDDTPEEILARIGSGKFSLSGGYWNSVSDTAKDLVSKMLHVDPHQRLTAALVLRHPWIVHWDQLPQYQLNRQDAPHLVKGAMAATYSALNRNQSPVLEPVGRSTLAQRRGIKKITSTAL
The target of data set [2] is T1, Ribosomal protein S6 kinase alpha-3. As to the kind of experiment: Inhibition of RSK2 (unknown origin) assessed as reduction in YB1 […] phosphorylation.
Data set [3] has as its target T2, Tyrosine-protein kinase receptor UFO (Homo sapiens, UniProt P30530).
T2 sequence (P30530 whole entry): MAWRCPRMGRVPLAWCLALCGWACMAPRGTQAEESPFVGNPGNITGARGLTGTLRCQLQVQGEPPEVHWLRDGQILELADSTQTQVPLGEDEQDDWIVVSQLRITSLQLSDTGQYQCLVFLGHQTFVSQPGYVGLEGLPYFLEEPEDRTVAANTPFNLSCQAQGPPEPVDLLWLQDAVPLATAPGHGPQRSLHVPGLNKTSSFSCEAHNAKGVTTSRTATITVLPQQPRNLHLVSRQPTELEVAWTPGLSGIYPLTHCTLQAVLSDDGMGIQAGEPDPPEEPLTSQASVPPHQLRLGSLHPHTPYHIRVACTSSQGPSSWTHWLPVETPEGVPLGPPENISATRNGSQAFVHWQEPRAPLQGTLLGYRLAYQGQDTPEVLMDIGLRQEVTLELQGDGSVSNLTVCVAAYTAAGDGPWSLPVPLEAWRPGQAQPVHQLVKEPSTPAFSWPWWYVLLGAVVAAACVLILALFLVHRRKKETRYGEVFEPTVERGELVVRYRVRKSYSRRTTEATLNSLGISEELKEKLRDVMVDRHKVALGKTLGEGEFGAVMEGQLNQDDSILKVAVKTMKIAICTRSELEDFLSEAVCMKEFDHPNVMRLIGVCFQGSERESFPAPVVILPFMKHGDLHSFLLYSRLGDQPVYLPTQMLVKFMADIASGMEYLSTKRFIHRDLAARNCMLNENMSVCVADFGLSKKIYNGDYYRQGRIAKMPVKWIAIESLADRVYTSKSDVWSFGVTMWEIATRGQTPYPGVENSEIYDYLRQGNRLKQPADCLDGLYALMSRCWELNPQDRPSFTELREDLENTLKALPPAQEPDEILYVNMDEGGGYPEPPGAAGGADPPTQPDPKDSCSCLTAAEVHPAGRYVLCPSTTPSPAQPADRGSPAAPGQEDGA
As to the kind of experiment: Inhibition of AXL (unknown origin).

Data set [4] has as its target Proto-oncogene tyrosine-protein kinase receptor Ret (Homo sapiens, UniProt P07949). As to the kind of experiment: Inhibition of RET (unknown origin).
The target in data set [5] is Fibroblast growth factor receptor 1 (Homo sapiens, UniProt P11362). As to the kind of experiment: Inhibition of FGFR1 (unknown origin).
Data set [6] addresses Tyrosine-protein kinase JAK1 (Homo sapiens, UniProt P23458). As to the kind of experiment: Inhibition of JAK1 (unknown origin).
The target of data set [7] is Ribosomal protein S6 kinase beta-1 (Homo sapiens, UniProt P23443). As to the kind of experiment: Inhibition of RPS6KB1 (unknown origin).
Ribosomal protein S6 kinase beta-1, sequence (P23443 whole entry): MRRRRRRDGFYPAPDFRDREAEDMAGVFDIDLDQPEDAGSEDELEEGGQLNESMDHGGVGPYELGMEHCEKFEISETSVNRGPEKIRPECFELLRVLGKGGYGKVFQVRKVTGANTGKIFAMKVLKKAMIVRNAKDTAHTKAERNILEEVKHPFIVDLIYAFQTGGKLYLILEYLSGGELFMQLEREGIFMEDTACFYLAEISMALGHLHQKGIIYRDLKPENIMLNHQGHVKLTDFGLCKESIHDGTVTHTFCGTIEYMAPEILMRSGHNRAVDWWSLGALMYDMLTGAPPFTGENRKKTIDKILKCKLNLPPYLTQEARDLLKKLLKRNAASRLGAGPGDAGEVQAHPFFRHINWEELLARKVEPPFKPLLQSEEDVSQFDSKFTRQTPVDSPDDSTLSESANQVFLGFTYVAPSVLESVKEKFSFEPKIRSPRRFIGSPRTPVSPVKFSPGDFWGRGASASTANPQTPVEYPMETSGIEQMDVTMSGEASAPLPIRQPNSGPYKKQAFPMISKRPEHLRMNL
Data set [8] has as its target Vascular endothelial growth factor receptor 2 (Homo sapiens, UniProt P35968). As to the kind of experiment: Inhibition of KDR (unknown origin).
Data set [9] is described as follows: Solubility of the compound in PBS buffer of pH 7.0. In kind it is physicochemical.
Data set [10] can be described thus: Efflux ratio of permeability of the compound in human Caco2 cells. Type of data set: ADME, cell-based. Particulars: Caco-2.
Data set [11] addresses Tyrosine-protein kinase JAK2 (Homo sapiens, UniProt O60674). As to the kind of experiment: Inhibition of JAK2 (unknown origin).
The target in data set [12] is T3, Receptor-type tyrosine-protein kinase FLT3 (Homo sapiens, UniProt P36888).
T3 sequence (P36888 whole entry): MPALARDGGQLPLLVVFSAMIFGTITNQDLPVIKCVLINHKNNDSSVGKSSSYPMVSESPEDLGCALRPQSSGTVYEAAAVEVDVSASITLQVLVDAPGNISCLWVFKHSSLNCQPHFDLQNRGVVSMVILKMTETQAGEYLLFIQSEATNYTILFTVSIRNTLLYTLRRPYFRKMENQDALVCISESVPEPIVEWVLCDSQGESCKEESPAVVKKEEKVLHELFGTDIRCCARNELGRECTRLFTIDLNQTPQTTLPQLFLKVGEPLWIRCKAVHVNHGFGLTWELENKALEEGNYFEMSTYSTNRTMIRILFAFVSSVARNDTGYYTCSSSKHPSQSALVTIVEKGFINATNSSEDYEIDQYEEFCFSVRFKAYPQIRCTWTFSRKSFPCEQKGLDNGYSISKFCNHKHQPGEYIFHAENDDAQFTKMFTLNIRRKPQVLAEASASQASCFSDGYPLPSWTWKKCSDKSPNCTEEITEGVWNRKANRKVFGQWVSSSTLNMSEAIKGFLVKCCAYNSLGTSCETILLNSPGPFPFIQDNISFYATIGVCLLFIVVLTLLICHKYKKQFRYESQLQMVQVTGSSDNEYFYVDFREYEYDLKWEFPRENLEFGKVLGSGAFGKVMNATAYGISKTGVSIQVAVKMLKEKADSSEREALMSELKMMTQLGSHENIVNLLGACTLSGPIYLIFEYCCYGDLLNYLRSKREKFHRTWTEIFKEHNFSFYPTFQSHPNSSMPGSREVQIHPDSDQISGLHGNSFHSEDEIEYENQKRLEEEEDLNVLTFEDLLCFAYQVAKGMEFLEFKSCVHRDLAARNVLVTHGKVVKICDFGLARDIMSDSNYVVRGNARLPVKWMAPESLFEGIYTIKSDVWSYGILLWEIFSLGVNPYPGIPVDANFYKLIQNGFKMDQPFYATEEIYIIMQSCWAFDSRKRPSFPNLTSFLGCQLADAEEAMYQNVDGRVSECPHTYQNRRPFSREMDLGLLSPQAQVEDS
As to the kind of experiment: Inhibition of FLT3 (unknown origin).

The target of data set [13] is Fibroblast growth factor receptor 2 (Homo sapiens, UniProt P21802). As to the kind of experiment: Inhibition of FGFR2 (unknown origin).
Fibroblast growth factor receptor 2, sequence (P21802 whole entry): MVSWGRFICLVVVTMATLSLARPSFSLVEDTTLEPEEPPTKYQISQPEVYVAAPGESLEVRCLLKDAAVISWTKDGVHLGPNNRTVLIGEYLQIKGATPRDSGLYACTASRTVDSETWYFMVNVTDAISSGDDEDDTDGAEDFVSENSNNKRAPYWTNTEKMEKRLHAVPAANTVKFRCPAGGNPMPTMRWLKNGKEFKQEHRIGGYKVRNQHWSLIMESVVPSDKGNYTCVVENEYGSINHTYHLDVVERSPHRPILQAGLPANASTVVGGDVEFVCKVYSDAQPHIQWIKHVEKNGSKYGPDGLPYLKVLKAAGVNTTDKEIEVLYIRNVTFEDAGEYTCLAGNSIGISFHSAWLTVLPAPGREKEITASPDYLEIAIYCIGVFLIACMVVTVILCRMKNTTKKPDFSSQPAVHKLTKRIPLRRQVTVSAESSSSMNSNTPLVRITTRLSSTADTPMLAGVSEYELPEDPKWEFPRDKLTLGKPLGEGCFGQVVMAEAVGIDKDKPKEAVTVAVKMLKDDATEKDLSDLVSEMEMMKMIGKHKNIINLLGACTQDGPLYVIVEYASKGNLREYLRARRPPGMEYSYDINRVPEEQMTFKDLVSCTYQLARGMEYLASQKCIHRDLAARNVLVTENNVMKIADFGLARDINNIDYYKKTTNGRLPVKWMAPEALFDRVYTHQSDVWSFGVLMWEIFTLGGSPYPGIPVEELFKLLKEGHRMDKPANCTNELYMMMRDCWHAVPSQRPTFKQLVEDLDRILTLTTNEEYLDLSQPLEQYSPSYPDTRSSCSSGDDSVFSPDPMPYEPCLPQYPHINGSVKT

Values after ≈ are worked out from the molar mass of the structure shown. Some results are limits rather than exact numbers.

Tyrosine-protein kinase JAK1, sequence (P23458 whole entry): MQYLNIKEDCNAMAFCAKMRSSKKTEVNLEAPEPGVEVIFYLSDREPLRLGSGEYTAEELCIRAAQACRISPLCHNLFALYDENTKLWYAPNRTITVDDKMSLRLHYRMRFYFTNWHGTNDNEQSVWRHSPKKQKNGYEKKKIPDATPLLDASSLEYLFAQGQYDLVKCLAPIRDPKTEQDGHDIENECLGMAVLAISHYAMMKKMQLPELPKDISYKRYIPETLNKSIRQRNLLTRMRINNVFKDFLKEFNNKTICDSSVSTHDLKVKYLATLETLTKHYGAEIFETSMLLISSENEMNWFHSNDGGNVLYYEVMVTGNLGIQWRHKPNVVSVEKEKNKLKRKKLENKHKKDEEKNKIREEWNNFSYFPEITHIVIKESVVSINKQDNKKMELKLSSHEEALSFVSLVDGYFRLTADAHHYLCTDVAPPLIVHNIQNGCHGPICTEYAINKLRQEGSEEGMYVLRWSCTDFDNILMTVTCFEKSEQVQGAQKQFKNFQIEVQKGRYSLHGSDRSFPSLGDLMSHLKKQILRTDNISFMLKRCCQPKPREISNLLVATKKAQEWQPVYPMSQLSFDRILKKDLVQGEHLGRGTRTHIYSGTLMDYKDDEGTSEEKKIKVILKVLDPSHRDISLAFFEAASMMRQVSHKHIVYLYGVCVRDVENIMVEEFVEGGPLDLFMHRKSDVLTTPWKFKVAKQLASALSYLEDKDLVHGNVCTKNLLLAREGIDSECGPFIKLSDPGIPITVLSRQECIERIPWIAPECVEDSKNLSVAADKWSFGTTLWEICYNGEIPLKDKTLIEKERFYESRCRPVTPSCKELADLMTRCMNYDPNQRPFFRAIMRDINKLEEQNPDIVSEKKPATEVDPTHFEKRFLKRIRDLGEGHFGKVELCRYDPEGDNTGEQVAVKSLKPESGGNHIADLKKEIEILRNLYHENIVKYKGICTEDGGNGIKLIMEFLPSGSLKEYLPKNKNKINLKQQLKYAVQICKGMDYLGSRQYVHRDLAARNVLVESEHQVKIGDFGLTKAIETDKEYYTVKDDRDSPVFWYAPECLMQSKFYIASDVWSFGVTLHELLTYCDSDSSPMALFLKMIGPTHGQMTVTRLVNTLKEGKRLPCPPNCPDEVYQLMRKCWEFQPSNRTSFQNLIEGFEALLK
Proto-oncogene tyrosine-protein kinase receptor Ret, sequence (P07949 whole entry): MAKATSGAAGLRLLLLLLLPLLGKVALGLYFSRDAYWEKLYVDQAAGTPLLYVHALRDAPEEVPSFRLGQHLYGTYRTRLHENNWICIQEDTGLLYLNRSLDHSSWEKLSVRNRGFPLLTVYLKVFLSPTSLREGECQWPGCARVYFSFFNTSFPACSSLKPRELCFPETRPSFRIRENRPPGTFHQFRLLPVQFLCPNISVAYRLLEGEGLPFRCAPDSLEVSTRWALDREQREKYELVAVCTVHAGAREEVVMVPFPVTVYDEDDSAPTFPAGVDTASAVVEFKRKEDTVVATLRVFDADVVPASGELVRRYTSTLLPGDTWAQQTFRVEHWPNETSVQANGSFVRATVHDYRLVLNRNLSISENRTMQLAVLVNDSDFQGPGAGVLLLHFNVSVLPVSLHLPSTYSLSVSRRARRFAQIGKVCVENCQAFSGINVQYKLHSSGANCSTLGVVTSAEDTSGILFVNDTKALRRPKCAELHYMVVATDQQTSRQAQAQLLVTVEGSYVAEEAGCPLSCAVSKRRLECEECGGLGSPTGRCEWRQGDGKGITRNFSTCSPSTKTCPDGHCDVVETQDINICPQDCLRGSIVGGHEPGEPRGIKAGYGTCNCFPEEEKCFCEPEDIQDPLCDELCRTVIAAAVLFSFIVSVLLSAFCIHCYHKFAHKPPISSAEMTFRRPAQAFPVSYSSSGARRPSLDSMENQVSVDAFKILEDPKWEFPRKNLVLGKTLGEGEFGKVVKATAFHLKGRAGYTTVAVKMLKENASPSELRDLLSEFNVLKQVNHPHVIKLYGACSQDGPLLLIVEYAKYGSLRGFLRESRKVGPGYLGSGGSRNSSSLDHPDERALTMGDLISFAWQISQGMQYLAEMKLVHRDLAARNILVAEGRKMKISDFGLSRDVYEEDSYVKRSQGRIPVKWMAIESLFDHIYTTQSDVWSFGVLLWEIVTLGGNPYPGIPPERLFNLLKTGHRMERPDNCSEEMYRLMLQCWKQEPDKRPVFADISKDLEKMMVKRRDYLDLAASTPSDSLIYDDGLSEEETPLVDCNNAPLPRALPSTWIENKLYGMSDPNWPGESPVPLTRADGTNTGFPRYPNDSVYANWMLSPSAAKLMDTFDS

Turning to `COc1c(F)cc(-c2cnc3[nH]ccc3c2-c2ccc(N3CCN(C)CC3)cc2)cc1F`, the results for the 50% inhibitory concentration (IC50) in [1] and in [2] were 500 nM and greater than 20000 nM, respectively.

For the compound `Oc1c(F)cc(-c2cnccc2-c2ccc(N3CCOCC3)cc2)cc1F`, the IC50 in data set [2] came out at 210 nM.

Consider `CN1CCN(c2ccc(-c3c(-c4cc(F)cc(F)c4)cnc4[nH]ccc34)cc2)CC1`, for which the half-inhibitory concentration (IC50) came to 38 nM in [1] and 6000 nM in data set [2].

In the case of `CN1CCN(c2ccc(-c3c(-c4ccc(N)nc4)cnc4[nH]ccc34)cc2)CC1`, the values for the IC50 in [1] and in [2] were 810 nM and 7200 nM, respectively.

With `CN1CCN(c2ccc(-c3c(-c4ccc(F)cc4)cnc4[nH]ccc34)cc2)CC1`, the IC50 in [1] was 1900 nM; in [2], greater than 20000 nM.

Take `CN1CCN(c2ccc(-c3c(-c4ccc(C(F)F)cc4)cnc4[nH]ccc34)cc2)CC1`: the IC50 in [1] was found to be 800 nM; in data set [2], 18100 nM.

With `CN1CCN(c2ccc(-c3c(-c4cc(F)c(O)c(F)c4)cnc4[nH]ccc34)cc2)CC1`, the IC50 is less than 1000 nM in [3]; less than 1000 nM in [4]; less than 1000 nM in data set [5]; less than 1000 nM in [6]; 120 nM in [7]; less than 1000 nM in data set [8]. For the same compound, the IC50 in data set [1] was 0.3 nM; in data set [11], less than 1000 nM; in data set [12], 120 nM; in [2], 54 nM; in data set [13], less than 1000 nM. In data set [9], the solubility was 10.3 µg/mL (≈ 24.5 µM). Further, the efflux ratio in data set [10] stood at 0.8.

Consider `Cc1ccc(-c2c(-c3cc(F)c(O)c(F)c3)cnc3[nH]ccc23)cc1`, for which the results for the IC50 in [1] and in data set [2] were 2 nM and 232 nM, respectively.

With `CN1CCN(c2ccc(-c3c(-c4cn[nH]c4)cnc4[nH]ccc34)cc2)CC1`, the 50% inhibitory concentration (IC50) in data set [1] amounted to 240 nM; in [2] it was 2400 nM.

As for `CN1CCN(c2ccc(-c3c(-c4ccnc(F)c4)cnc4[nH]ccc34)cc2)CC1`, the 50% inhibitory concentration (IC50) in [1] was 1100 nM; in [2], greater than 20000 nM.

Consider `CN1CCN(c2ccc(-c3ccncc3-c3cc(F)c(O)c(F)c3)cc2)CC1`, for which the half-inhibitory concentration (IC50) in data set [2] was 340 nM.

Consider `Oc1c(F)cc(-c2cnc3[nH]ccc3c2-c2ccc(N3CCOCC3)cc2)cc1F`, for which the half-inhibitory concentration (IC50) was determined as 2 nM in [1] and 50 nM in [2]. Further, the solubility in data set [9] is less than 0.22 µg/mL.

As to `Oc1ccc(-c2cn[nH]c2-c2ccc(O)cc2)cc1`, the IC50 in data set [1] is 20 nM; in [2], 2800 nM.
